Entries after “also recorded” stand apart in the source; their conditions may differ.
Key:
[1] = target: T1, TRF1TRFH (Homo sapiens, UniProt P54274); assay: LO-NMR R2KD assay; type: binding; details: global KD shared across 1H NMR peaks, single experiment, 95% CI in parentheses; 2 µM TRF1TRFH
T1 construct: encoding residues 47–268, UniProt identifier P54274-1; His6-MBP (TEV-cleavable) (N, cleaved yes); made in house; host or cells: E. coli BL21-CodonPlus(DE3)-RIL
T1 sequence (P54274 47-268): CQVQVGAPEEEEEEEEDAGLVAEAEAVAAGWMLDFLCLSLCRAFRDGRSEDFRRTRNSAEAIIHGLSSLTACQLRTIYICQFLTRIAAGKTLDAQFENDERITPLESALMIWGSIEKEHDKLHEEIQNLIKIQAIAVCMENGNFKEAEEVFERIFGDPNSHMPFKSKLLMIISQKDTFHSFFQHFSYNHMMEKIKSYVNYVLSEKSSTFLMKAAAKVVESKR
Experimental: Recent work by Liu and colleagues introduced a novel LO-NMR method that can be used to quantitatively determine the dissociation constant (KD) of a ligand for a protein from measured R2 values of ligand nuclei at a range of ligand concentrations.
The R2KD assay was carried out as described by Liu et al.[40]. A Bruker SamplePro liquid handler was used to prepare 10 samples: 8 samples containing an increasing ligand concentration from 50 to 500 µM whilst maintaining a constant TRF1TRFH concentration (2 µM final); and two samples containing ligand only at 200 µM and 400 µM. All ten samples were prepared from stock solutions of ligand, DMSO, protein and buffer alone using the Bruker SamplePro liquid handler prior to transfer to 3-mm NMR tubes.
NMR data were collected at 298 K on a Bruker Avance Neo 600-MHz spectrometer using the Bruker Topspin 4.0 software. T2 relaxation experiments were performed using the standard Bruker CPMG pulse program with Excitation Sculpting incorporated to suppress water signal. The spin-echo period (delay-180°-delay) was set to 1 ms (d20 = 500 µs), and the relaxation delay (d1) was set to 10 s. The sudo-2D experiment contained nine slices with the spin echo period repeated at the following times: 4, 20, 100, 200, 300, 500, 700, 1000, and 2000 ms. T2 relaxation data were processed using the MestReNova 14.1 data analysis module to obtain integrals of individual[1]H-NMR signals, which were used to calculate R2 with the equation I = I0e^(−tR2). GraphPad Prism 9.0.0 was used to fit R2 values of individual compound peaks to obtain an overall (shared) KD value from all peaks of the compound.

[2] = target: T2, shelterin complex (Homo sapiens, UniProt P54274); assay: Mass photometry assay of TRF1 eviction from shelterin; type: biochemical
T2 construct: evicted full-length TRF1 from the shelterin complex; made in house; host or cells: Spodoptera frugiperda (Sf9) insect cells, MultiBac baculovirus
T2 sequence (P54274 1-439): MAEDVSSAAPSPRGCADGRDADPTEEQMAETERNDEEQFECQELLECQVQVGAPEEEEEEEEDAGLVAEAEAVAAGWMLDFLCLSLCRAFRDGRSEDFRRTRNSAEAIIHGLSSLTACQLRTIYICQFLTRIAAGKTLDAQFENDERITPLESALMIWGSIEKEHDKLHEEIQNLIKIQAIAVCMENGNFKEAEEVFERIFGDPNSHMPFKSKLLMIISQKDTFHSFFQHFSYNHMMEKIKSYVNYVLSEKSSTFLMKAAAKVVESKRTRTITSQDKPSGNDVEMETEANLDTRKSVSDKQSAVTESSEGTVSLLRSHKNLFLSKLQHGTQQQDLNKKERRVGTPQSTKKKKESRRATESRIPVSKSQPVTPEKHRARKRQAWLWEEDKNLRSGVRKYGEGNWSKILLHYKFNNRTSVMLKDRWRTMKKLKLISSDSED
Source text: We developed a mass-photometry based assay to evaluate the ability of compound 40 to disrupt the TRF1TRFH:TIN2TBM interaction and subsequently evict TRF1 from the full shelterin complex. We expressed recombinant shelterin in insect cells (see Materials and Methods) and purified it via affinity and size exclusion chromatography (SEC). Given the compositional heterogeneity of shelterin, also observed by Zinder et al. 2022[42], we enriched a complex of approximately 700 kDa by serial SEC. The resulting complex was incubated with increasing concentrations of compound 40, and the resulting mass distribution was analysed by mass photometry. Due to disassembly of the complex upon dilution to nanomolar concentrations required for mass photometry, we stabilised it by limited crosslinking using glutaraldehyde prior to dilution to assess potential TRF1 dissociation (Supplementary Fig. 6). With increasing concentrations of compound 40, we observed an increase in a peak around 100 kDa, corresponding in size to the full-length TRF1 dimer (Fig. 6a; Supplementary Fig. 7a, b), consistent with eviction of TRF1 from shelterin. […] Additionally, the mass photometry peak of shelterin shifted and reduced in size by approximately 100 kDa upon the addition of > 250 µM of compound 40, indicating the removal of TRF1 from the complex (Fig. 6a). To confirm whether the evicted entity corresponds to TRF1, we analysed the full shelterin complex by SDS-PAGE, upon co-incubation with increasing amounts of compound 40 or control compound 60 and subsequent mild crosslinking, analogous to the mass photometry experiment. […] To confirm its identity, we performed Western blotting, probing for TRF1, TRF2 and TIN2. This analysis confirmed that the released protein is TRF1 (Fig. 6c, f).
Mass Photometry (MP) experiments were performed using a Refeyn OneMP instrument. […] Data were processed and analysed using Refeyn DiscoverMP software (v2024 R2). Gaussian fits for the mass distribution histograms, mass measurements and percentage abundances (of peak counts to total counts) were determined for each peak observed.

Kd [1]: 29 µM | concentration at which TRF1 eviction reaches a plateau ([2]; 1.25 µM shelterin, 100-300 µM compound, 1 h, glutaraldehyde crosslinking, n = 1): 250 µM | reduction in size of shelterin mass photometry peak ([2]; upon addition of > 250 µM compound): around 100 kDa
Structure (SMILES): COc1cc(COc2ccc(S(=O)(=O)[O-])c3ccccc23)cc(OC)c1.[Na+] [Compound 40]
eviction of TRF1 from shelterin (100-kDa TRF1 peak) ([2]; compound 40 at 100-300 µM, compound 60 at 300 µM): expels TRF1 from purified shelterin; also recorded: concentration-dependent increase in eviction of TRF1
